The record followed here is US20220281831A1, “FUSED-GLUTARIMIDE CRBN LIGANDS AND USES THEREOF” (Kymera Therapeutics, Inc., priority 2019, published 2022).

By IC50 is commonly meant the concentration at which inhibition is half-maximal. A higher IC50 goes with lower potency.

Some results are limits rather than exact numbers.

Chain of His-tagged CRBN-DDB1 complex (Q96SW2 whole entry): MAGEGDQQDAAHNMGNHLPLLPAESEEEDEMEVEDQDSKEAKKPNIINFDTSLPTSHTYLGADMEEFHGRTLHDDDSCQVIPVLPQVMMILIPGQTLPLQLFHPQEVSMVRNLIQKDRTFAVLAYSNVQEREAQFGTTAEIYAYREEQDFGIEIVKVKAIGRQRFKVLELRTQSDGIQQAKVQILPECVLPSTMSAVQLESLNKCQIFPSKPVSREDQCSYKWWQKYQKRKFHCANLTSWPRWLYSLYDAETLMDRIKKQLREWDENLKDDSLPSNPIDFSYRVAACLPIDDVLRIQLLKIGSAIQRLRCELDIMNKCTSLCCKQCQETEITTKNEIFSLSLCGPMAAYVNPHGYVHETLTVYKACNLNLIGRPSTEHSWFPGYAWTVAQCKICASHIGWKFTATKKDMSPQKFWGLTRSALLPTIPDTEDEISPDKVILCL
Chain of His-tagged CRBN-DDB1 complex (Q16531 whole entry partner): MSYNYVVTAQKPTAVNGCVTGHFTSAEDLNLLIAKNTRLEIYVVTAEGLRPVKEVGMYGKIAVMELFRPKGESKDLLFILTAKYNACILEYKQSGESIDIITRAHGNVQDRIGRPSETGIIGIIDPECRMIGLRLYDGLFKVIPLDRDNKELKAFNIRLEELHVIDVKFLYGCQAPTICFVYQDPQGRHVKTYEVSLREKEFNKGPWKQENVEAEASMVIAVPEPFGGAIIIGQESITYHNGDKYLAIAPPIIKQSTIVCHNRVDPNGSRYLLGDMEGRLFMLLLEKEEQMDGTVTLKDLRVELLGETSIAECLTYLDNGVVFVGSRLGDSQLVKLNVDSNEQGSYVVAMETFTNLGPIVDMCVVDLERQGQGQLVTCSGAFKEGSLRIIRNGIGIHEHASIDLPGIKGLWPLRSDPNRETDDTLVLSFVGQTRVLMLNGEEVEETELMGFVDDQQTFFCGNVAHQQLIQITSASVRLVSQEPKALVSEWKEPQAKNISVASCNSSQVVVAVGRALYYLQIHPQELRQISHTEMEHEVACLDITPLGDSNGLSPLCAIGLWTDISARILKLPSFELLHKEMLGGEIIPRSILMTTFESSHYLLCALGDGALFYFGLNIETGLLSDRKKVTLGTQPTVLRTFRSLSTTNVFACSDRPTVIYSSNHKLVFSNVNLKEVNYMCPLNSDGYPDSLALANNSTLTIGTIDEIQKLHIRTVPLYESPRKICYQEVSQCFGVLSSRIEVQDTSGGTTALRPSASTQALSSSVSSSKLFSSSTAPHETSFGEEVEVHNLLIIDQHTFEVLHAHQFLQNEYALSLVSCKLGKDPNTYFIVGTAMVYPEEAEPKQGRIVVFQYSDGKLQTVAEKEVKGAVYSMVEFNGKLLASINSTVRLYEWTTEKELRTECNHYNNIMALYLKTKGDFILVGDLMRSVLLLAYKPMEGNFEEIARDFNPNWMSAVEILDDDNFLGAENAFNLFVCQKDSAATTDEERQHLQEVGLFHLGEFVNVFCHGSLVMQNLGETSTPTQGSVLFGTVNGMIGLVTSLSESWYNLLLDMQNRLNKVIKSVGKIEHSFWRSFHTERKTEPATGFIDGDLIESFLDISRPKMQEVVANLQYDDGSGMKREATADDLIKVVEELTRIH

The assay concerns the target His-tagged CRBN-DDB1 complex (Homo sapiens, UniProt Q96SW2). The experiment in a line: Time-Resolved Fluorescence Resonance Energy Transfer (TR-FRET / HTRF) CRBN binding assay, displacement of Cy5-labeled thalidomide. The following applies: His-CRBN-DDB1, Cy5-thalidomide 8 nM, 1 hour room temperature. On the procedure:
Time-Resolved Fluorescence Resonance Energy Transfer (TR-FRET) Assay.
Equal volumes of His-tagged CRBN-DDB1 complex (56 nM) was mixed with Eu-cryptate labeled Anti-6HIS-monoclonal antibody (50× dilution from the commercial stock solution, Vender: Cisbio, Cat. #61HI2KLA) in a final buffer containing 20 mM HEPES pH 7.0, 150 mM NaCl, 0.005% Tween-20. […] The mixture were incubated at room temperature for 1 hour. FRET signals were measured on an EnVision plate reader (Perkin Elmer) by exciting at 340 nm and recording emission at both 615 nm as no FRET control and 665 nm as the FRET signals with a 60 microsecond delay. FRET efficiency was calculated as the ratio of fluorescent signals at […]. Quantitative loss of FRET efficiency as a function of compound concentrations was fitted by a four-parameter Logistic Function using GraphPad Prism 7.0 and the IC50 values were reported for each compound.
The compound numbers correspond to the compound numbers in Table 1.
Background: Time-resolved FRET reads energy transfer from a long-lived donor to a nearby acceptor.
`Nc1ccc(N2C[C@@H]3C(=O)NC(=O)[C@@H]3C2)cc1` [Compound I-150]: the IC50 is > 100 µM. Regarding `O=C1NC(=O)[C@@H]2CN(c3ccccc3Cl)C[C@H]12` [Compound I-153], the half-inhibitory concentration (IC50) is > 100 µM. Regarding `NC(=O)c1ccc(N2C[C@@H]3C(=O)NC(=O)[C@@H]3C2)cc1` [Compound I-154], the IC50 is > 100 µM. To `COc1ccc2cc(N3C[C@@H]4C(=O)NC(=O)[C@@H]4C3)ccc2c1` [Compound I-155] belongs > 100 µM; to `O=C1NC(=O)[C@@H]2CN(c3ccc4c(c3)CCO4)C[C@H]12` [Compound I-156], > 100 µM; to `O=C1NC(=O)[C@@H]2CN(c3ccc4c(c3)OCO4)C[C@H]12` [Compound I-157], > 100 µM. Take `O=C1NC(=O)[C@@H]2CN(c3ccccc3)C[C@H]12` [Compound I-158]: the IC50 was > 100 µM. For `O=C1CC2(CCN(c3ccc(-c4ccccc4)c(F)c3)CC2)CC(=O)N1` [Compound I-160] the value was > 100 µM; for `Cc1cccc(N2C[C@@H]3C(=O)NC(=O)[C@@H]3C2)c1` [Compound I-161], > 100 µM.

As for `COC(=O)c1ccc(N2CCC3(CC2)CC(=O)NC(=O)C3)cc1` [Compound I-162], the IC50 is > 100 µM. To `O=C1NC(=O)[C@@H]2CN(C3CCC3)C[C@H]12` [Compound I-163] belongs > 100 µM; to `Cc1cccc(C(=O)N2C[C@@H]3C(=O)NC(=O)[C@@H]3C2)n1` [Compound I-164], > 100 µM; to `COc1cccc(C(=O)N2C[C@@H]3C(=O)NC(=O)[C@@H]3C2)n1` [Compound I-165], > 100 µM. For the compound `O=C1NC(=O)[C@@H]2CN(C(=O)c3cc(C(F)(F)F)ccn3)C[C@H]12` [Compound I-166], the IC50 is > 100 µM.

In the case of `O=C1NC(=O)[C@@H]2CN(C(=O)c3ccc4ccccc4n3)C[C@H]12` [Compound I-167], the IC50 was > 100 µM. For `O=C1NC(=O)[C@@H]2CN(C(=O)c3cc4ccccc4cn3)C[C@H]12` [Compound I-168] the value was > 100 µM; for `Nc1cccc(C(=O)N2C[C@@H]3C(=O)NC(=O)[C@@H]3C2)c1` [Compound I-169], > 100 µM; for `NC(=O)c1ccccc1N1C[C@@H]2C(=O)NC(=O)[C@@H]2C1` [Compound I-170], > 100 µM. For `CC(=O)Nc1ccccc1N1C[C@@H]2C(=O)NC(=O)[C@@H]2C1` [Compound I-171] the value was > 100 µM; for `O=CNc1ccccc1N1C[C@@H]2C(=O)NC(=O)[C@@H]2C1` [Compound I-172], > 100 µM. For `Nc1ccc2c(c1)C1(CC(=O)NC1=O)C(=O)N2` (stereo not shown) [Compound I-173] the value was > 100 µM. With `O=C1CC2(C(=O)N1)C(=O)Nc1ccccc12` (stereo not shown) [Compound I-174], the IC50 is > 100 µM. For `CNC(=O)c1cccc(N2C[C@@H]3C(=O)NC(=O)[C@@H]3C2)c1` [Compound I-177] the value was > 100 µM; for `CN(C)C(=O)c1cccc(N2C[C@@H]3C(=O)NC(=O)[C@@H]3C2)c1` [Compound I-178], > 100 µM.

`N#Cc1cccc(N2C[C@@H]3C(=O)NC(=O)[C@@H]3C2)c1` [Compound I-179]: the IC50 was > 100 µM. For `CS(=O)(=O)c1cccc(N2C[C@@H]3C(=O)NC(=O)[C@@H]3C2)c1` [Compound I-180] the value was > 100 µM. `COCc1cccc(N2C[C@@H]3C(=O)NC(=O)[C@@H]3C2)c1` [Compound I-181]: the IC50 was > 100 µM. For `COc1ccccc1C(=O)N1C[C@@H]2C(=O)NC(=O)[C@@H]2C1` [Compound I-182] the value was > 100 µM; for `CN1C(=O)C2(CC(=O)NC2=O)c2cc(N)ccc21` (stereo not shown) [Compound I-183], > 100 µM. For `CN1C(=O)C2(CC(=O)NC2=O)c2ccccc21` (stereo not shown) [Compound I-184], the IC50 was > 100 µM. Take `Cn1c(=O)[nH]c2cccc(Br)c2c1=O` [Compound I-190]: the IC50 was > 100 µM. In the case of `Cn1c(=O)c2cc(Br)ccc2n(C)c1=O` [Compound I-191], the IC50 is > 100 µM.

With `Cn1c(=O)c2c(Br)cccc2n(C)c1=O` [Compound I-192], the IC50 was > 100 µM. For `O=C1CC2(Nc3ccccc3C2=O)C(=O)N1` (stereo not shown) [Compound I-195, 1H-spiro[indole-2,3′-pyrrolidine]-2′,3,5′-trione], the IC50 was > 100 µM. For `O=C1CCc2cccc(Oc3ccccc3)c2C(=O)N1` [Compound I-209, 9-Phenoxy-4,5-dihydro-2H-2-benzazepine-1,3-dione] the value was > 100 µM. For the compound `O=C1Cc2cccc(Oc3ccccc3C(F)(F)F)c2C(=O)N1` [Compound I-210, 8-[2-(Trifluoromethyl)phenoxy]-2,4-dihydroisoquinoline-1,3-dione], the IC50 was < 10 µM. To `CC(C)c1ccccc1Oc1cccc2c1C(=O)NC(=O)C2` [Compound I-211, 8-(2-Isopropylphenoxy)-2,4-dihydroisoquinoline-1,3-dione] belongs < 10 µM; to `CC(C)(C)OC(=O)NCC#Cc1ccccc1Oc1cccc2c1C(=O)NC(=O)C2` [Compound I-212], 30 to 100 µM. To `CC(C)(C)OC(=O)NCCCCCC#Cc1ccccc1Oc1cccc2c1C(=O)NC(=O)C2=O` [Compound I-242] belongs < 10 µM; to `Cc1ccc(Oc2ccccc2)c2c1CC(=O)NC2=O` [Compound I-279], 30 to 100 µM; to `CN(Cc1ccccc1)C(=O)c1cccc2c1C(=O)NC(=O)C2` [Compound I-280], 30 to 100 µM. Regarding `O=C1Cc2cccc(NCc3ccccc3)c2C(=O)N1` [Compound I-281], the IC50 is < 10 µM. Turning to `CC(C1CC1)N1C[C@@H]2C(=O)NC(=O)[C@@H]2C1` (stereo partly shown) [Compound I-282], the IC50 is > 100 µM. To `O=C1NC(=O)c2cc(NC(=O)N3CCCCC3)ccc21` [Compound I-283] belongs > 100 µM; to `CC(=O)N1C[C@@H]2C(=O)NC(=O)[C@@H]2C1` [Compound I-284], > 100 µM. To `O=C1NC(=O)[C@@H]2CN(C(=O)c3ccc(Cl)cc3)C[C@H]12` [Compound I-286] belongs > 100 µM.

In the case of `O=C1NC(=O)[C@@H]2CN(Cc3cccc(O)c3)C[C@H]12` [Compound I-287], the IC50 is > 100 µM.

As for `O=C1NC(=O)[C@@H]2CN(Cc3c[nH]c4ccccc34)C[C@H]12` [Compound I-288], the IC50 is > 100 µM. As to `O=C1NC(=O)[C@@H]2CN(C3Cc4ccccc4C3)C[C@H]12` [Compound I-289], the IC50 was > 100 µM. To `O=C1NC(=O)[C@@H]2CN(C(=O)c3ccc(O)cc3)C[C@H]12` [Compound I-291] belongs > 100 µM.

For the compound `COc1ccc(CN2C[C@@H]3C(=O)NC(=O)[C@@H]3C2)cn1` [Compound I-293], the IC50 was > 100 µM. For `CN(C)c1ccc(CN2C[C@@H]3C(=O)NC(=O)[C@@H]3C2)cc1` [Compound I-294] the value was > 100 µM; for `O=C1NC(=O)[C@@H]2CN(Cc3ccc([N+](=O)[O-])s3)C[C@H]12` [Compound I-295], 30 to 100 µM. Take `O=C1NC(=O)[C@@H]2CN(C3CCN(Cc4ccccc4)CC3)C[C@H]12` [Compound I-296]: the IC50 was > 100 µM. For `O=C1NC(=O)[C@@H]2CN(Cc3c[nH]cn3)C[C@H]12` [Compound I-297] the value was > 100 µM; for `O=C1NC(=O)[C@@H]2CN(CCc3ccccc3)C[C@H]12` [Compound I-298], > 100 µM; for `Cc1ccc(CN2C[C@@H]3C(=O)NC(=O)[C@@H]3C2)cc1` [Compound I-299], > 100 µM. Consider `O=C1NC(=O)[C@@H]2CN(Cc3ccc[nH]3)C[C@H]12` [Compound I-300], for which the concentration for half-maximal inhibition (IC50) is > 100 µM. For `O=C1NC(=O)[C@@H]2CN(C(=O)c3ccnc(Cl)c3)C[C@H]12` [Compound I-301] the value was > 100 µM. Turning to `O=C1NC(=O)[C@@H]2CN(C(=O)c3n[nH]c4ccccc34)C[C@H]12` [Compound I-302], the half-inhibitory concentration (IC50) was > 100 µM. As for `O=C1NC(=O)[C@@H]2CN(C(=O)COCc3ccccc3)C[C@H]12` [Compound I-303], the IC50 was > 100 µM. As to `O=C1NC(=O)[C@@H]2CN(C(=O)c3cccnn3)C[C@H]12` [Compound I-304], the IC50 was > 100 µM. For `Cc1cccc(CC(=O)N2C[C@@H]3C(=O)NC(=O)[C@@H]3C2)c1` [Compound I-305] the value was > 100 µM; for `O=C1NC(=O)[C@@H]2CN(C(=O)C3CC3)C[C@H]12` [Compound I-306], > 100 µM. To `O=C1NC(=O)[C@@H]2CN(C(=O)c3cnccn3)C[C@H]12` [Compound I-307] belongs > 100 µM; to `O=C1NC(=O)[C@@H]2CN(C(=O)c3ccco3)C[C@H]12` [Compound I-308], > 100 µM. To `Cc1ncoc1C(=O)N1C[C@@H]2C(=O)NC(=O)[C@@H]2C1` [Compound I-309] belongs > 100 µM; to `Cc1cc(C(=O)N2C[C@@H]3C(=O)NC(=O)[C@@H]3C2)ccn1` [Compound I-310], > 100 µM; to `O=C1NC(=O)[C@@H]2CN(Cc3ccc(Oc4ccccc4)cc3)C[C@H]12` [Compound I-311], 30 to 100 µM.

As to `CCCCOc1ccc(CN2C[C@@H]3C(=O)NC(=O)[C@@H]3C2)cc1` [Compound I-312], the IC50 was > 100 µM.
